Among the test systems are TK-10; NCI-H226; K562; MCF7; MDA-MB-231; OVCAR-5; MDA-MB-435; U-251; COLO 205; SNB-19; SK-OV-3; HOP-92; A549; DU-145; T47D; UACC-62; HT-29; Hs-578T; HOP-62; NCI-H522.
What all share (test): NCI tumour cell line growth inhibition, 48 h

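Exposure lasted 48 hours, with cells grown in 96-well plates and compounds tested at five concentrations. Here, GI50 denotes the concentration required for 50% inhibition of growth.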 The source made the active and inactive calls. Rule as the data show it: active = GI50 up to about 1.1 µM and inactive = higher.

`O=C1/C(=C2\SCC(=O)N2c2ccccc2)SC(=S)N1c1ccccc1`: the GI50 in the assay on TK-10 was 28.7 µM (inactive); in the assay on NCI-H226, 20.5 µM (inactive); in the assay with K562, 36.1 µM (inactive); in the assay on MCF7, 36.8 µM (inactive); in the assay on MDA-MB-231, 20.6 µM (inactive); in the assay on OVCAR-5, > 100 µM (inactive). The GI50 in the assay on MDA-MB-435 is 32.1 µM (inactive); in the assay with U-251 it was 30.4 µM (inactive); in the assay with COLO 205, 67 µM (inactive); in the assay with SNB-19 it was 50.9 µM (inactive); with SK-OV-3, 23.6 µM (inactive); in the assay on HOP-92, 23.3 µM (inactive). In addition, the GI50 is 31 µM (inactive) in the assay on A549; 34 µM (inactive) with DU-145; 51.2 µM (inactive) in the assay with T47D; 55 µM (inactive) in the assay with UACC-62; 56.1 µM (inactive) in the assay on HT-29; 34.5 µM (inactive) in the assay with Hs-578T.
Turning to `OC1(c2ccc(Cl)cc2)c2ccc(CN3CCCC3)cc2C2=NCCN21` (stereo not drawn), the GI50 in the assay with TK-10 is 4.98 µM (inactive); in the assay on K562, 16.1 µM (inactive); with MCF7, 16.8 µM (inactive); in the assay on HOP-62 it was 15.6 µM (inactive); in the assay on MDA-MB-231, 13.9 µM (inactive); with OVCAR-5, 16.7 µM (inactive). For the same molecule, the GI50 is 10.5 µM (inactive) with MDA-MB-435; 14 µM (inactive) in the assay on U-251; 10.8 µM (inactive) in the assay with COLO 205; 16.6 µM (inactive) with SNB-19; 14.2 µM (inactive) in the assay with SK-OV-3; 2.53 µM (inactive) in the assay on HOP-92. Besides, the GI50 with A549 is 17.1 µM (inactive); with DU-145 it was 16 µM (inactive); with T47D, 18.5 µM (inactive); with UACC-62, 14.7 µM (inactive); in the assay on HT-29, 13.1 µM (inactive); with Hs-578T, 12.3 µM (inactive).
On to `C=C(CO[Si](C)(C)C(C)(C)C)C(C)=O`, for which the GI50 is 3.78 µM (inactive) in the assay on NCI-H522; > 100 µM (inactive) in the assay with TK-10; > 69.3 µM (inactive) with NCI-H226; 6.73 µM (inactive) in the assay on K562; 23.3 µM (inactive) in the assay with MCF7; > 100 µM (inactive) in the assay on HOP-62. Further, the GI50 in the assay on MDA-MB-231 was 20.3 µM (inactive); with OVCAR-5, 31 µM (inactive); in the assay with MDA-MB-435, 17.6 µM (inactive); in the assay with U-251, > 63.2 µM (inactive); in the assay with COLO 205, 24.5 µM (inactive); in the assay on SNB-19, > 86.1 µM (inactive). Besides, the GI50 is > 89.3 µM (inactive) in the assay with SK-OV-3; > 100 µM (inactive) in the assay on A549; > 100 µM (inactive) in the assay on DU-145; 21.6 µM (inactive) with T47D; 15.7 µM (inactive) in the assay with UACC-62; 19.5 µM (inactive) with HT-29. In addition, in the assay on Hs-578T, the GI50 was 25.8 µM (inactive).
For the molecule `O=C1c2ccsc2-c2cccc3cccc1c23.O=C1c2sccc2-c2cccc3cccc1c23`, the GI50 in the assay with NCI-H522 is 5.21 µM (inactive); in the assay on TK-10 it was 2.55 µM (inactive); with NCI-H226, 2.03 µM (inactive); in the assay with K562 it was 10 µM (inactive); in the assay with MCF7, 8.41 µM (inactive); with HOP-62 it was 2.67 µM (inactive). The GI50 in the assay on MDA-MB-231 was 4.35 µM (inactive); with OVCAR-5 it was 1.71 µM (inactive); in the assay with MDA-MB-435, 17.1 µM (inactive); in the assay on U-251, 4.62 µM (inactive); with COLO 205 it was 2.33 µM (inactive); with SNB-19, 2.93 µM (inactive). The GI50 in the assay with SK-OV-3 is 18.5 µM (inactive); with A549, 3.32 µM (inactive); with DU-145, 0.65 µM (active); in the assay on T47D, 0.318 µM (active); in the assay with UACC-62 it was 4.15 µM (inactive); in the assay with HT-29 it was 2.11 µM (inactive). Besides, the GI50 in the assay with Hs-578T was 0.366 µM (active).
Take `Cc1ccc(/N=N/C(=N/NC(=O)c2cc(Cl)ccc2C(=O)c2ccccc2)c2ccc(N(CCC#N)CCC#N)cc2C)cc1`: the GI50 in the assay with NCI-H522 was 4.81 µM (inactive); in the assay with TK-10, 19.7 µM (inactive); in the assay with NCI-H226 it was 10.4 µM (inactive); with K562 it was 17.4 µM (inactive); in the assay with MCF7, 3.52 µM (inactive); in the assay with HOP-62, 15.6 µM (inactive). In addition, the GI50 was 4.06 µM (inactive) in the assay on MDA-MB-231; 21.3 µM (inactive) in the assay on OVCAR-5; 18.7 µM (inactive) in the assay with MDA-MB-435; 8.02 µM (inactive) in the assay with U-251; 9.14 µM (inactive) with COLO 205; 33.2 µM (inactive) in the assay on SNB-19. Moreover, the GI50 in the assay on SK-OV-3 was 8.09 µM (inactive); in the assay on A549 it was 11.5 µM (inactive); in the assay on DU-145, 11.5 µM (inactive); in the assay with T47D it was 3.81 µM (inactive); with UACC-62 it was 12.9 µM (inactive); in the assay with HT-29, 16.9 µM (inactive). Besides, the GI50 with Hs-578T was 27.2 µM (inactive).
Consider `COc1ccc2oc(=N)c(C(=O)Nc3ccccc3)cc2c1`, for which the GI50 in the assay with NCI-H522 is 2.58 µM (inactive); in the assay on TK-10 it was 57.5 µM (inactive); with NCI-H226, 31.1 µM (inactive); in the assay with K562 it was 1.26 µM (inactive); in the assay on MCF7, 12.8 µM (inactive); in the assay with HOP-62 it was 15.8 µM (inactive). Moreover, the GI50 in the assay with MDA-MB-231 is 23.4 µM (inactive); in the assay with OVCAR-5, 36.7 µM (inactive); in the assay on MDA-MB-435, 15.3 µM (inactive); in the assay on U-251, 19.1 µM (inactive); with COLO 205 it was 30.1 µM (inactive); in the assay with SNB-19, 25.2 µM (inactive). Moreover, the GI50 is 10.9 µM (inactive) with SK-OV-3; 34.3 µM (inactive) in the assay with A549; 33.7 µM (inactive) in the assay on DU-145; 4.41 µM (inactive) in the assay on T47D; 64.6 µM (inactive) with HT-29; 15 µM (inactive) in the assay on Hs-578T.
`CC(C)C1OC23CCCCC2C(C#N)(C#N)C1(C#N)C(=N)O3` (stereo not drawn): the GI50 is 19.9 µM (inactive) in the assay on TK-10; 98.6 µM (inactive) with NCI-H226; 8.61 µM (inactive) in the assay on K562; 12.1 µM (inactive) in the assay on MCF7; 19.6 µM (inactive) with MDA-MB-231; 20.1 µM (inactive) in the assay on OVCAR-5. The GI50 with MDA-MB-435 was 23.7 µM (inactive); in the assay with U-251, 17.4 µM (inactive); in the assay with COLO 205 it was 14.6 µM (inactive); in the assay on SNB-19, 34.3 µM (inactive); with SK-OV-3, > 100 µM (inactive); with HOP-92 it was 16.5 µM (inactive). Further, the GI50 with A549 was 71.8 µM (inactive); in the assay on DU-145 it was 26.3 µM (inactive); in the assay on T47D, 17.6 µM (inactive); in the assay on UACC-62, 20.6 µM (inactive); in the assay on HT-29, 14.5 µM (inactive); with Hs-578T, 16.4 µM (inactive).
With `CC1Cc2c(Br)nc(N)nc2NC1=O` (stereo not drawn), the GI50 with NCI-H522, in the assay with TK-10, in the assay on NCI-H226, in the assay with K562, in the assay with MCF7 and in the assay on HOP-62 was > 100 µM (inactive) each time. Also, the GI50 in the assay on MDA-MB-231, with OVCAR-5, with MDA-MB-435, in the assay with U-251, in the assay on COLO 205 and in the assay with SNB-19 was > 100 µM (inactive) in each case. Moreover, the GI50 in the assay on SK-OV-3, in the assay with A549, with DU-145, in the assay on T47D, in the assay with UACC-62 and in the assay on HT-29 was > 100 µM (inactive) throughout. The GI50 in the assay with Hs-578T is > 100 µM (inactive).

Source of the values: ChEMBL document CHEMBL1201862, “PubChem BioAssay data set” (2004).
